Experimental findings from patent US20070111265A1, “Ligands for mineralocorticoid receptor (MR) and methods for screening for or designing MR ligands” (Van Andel Research Institute, priority 2005, published 2007) are described below.

Values joined by “and” are separate entries in the source; they are usually repeats but may differ in a detail not shown here. Equal values may be shown once. Read-outs that look alike come from different tables or passages of the source.

The target in assay [1] is T1, wild type MR (full-length) (Homo sapiens, UniProt P08235).
T1 construct: receptor expression vector (pRS vector) encoding full-length GR and MR respectively (ATCC); host or cells: Cos-7
T1 sequence (P08235 1-984): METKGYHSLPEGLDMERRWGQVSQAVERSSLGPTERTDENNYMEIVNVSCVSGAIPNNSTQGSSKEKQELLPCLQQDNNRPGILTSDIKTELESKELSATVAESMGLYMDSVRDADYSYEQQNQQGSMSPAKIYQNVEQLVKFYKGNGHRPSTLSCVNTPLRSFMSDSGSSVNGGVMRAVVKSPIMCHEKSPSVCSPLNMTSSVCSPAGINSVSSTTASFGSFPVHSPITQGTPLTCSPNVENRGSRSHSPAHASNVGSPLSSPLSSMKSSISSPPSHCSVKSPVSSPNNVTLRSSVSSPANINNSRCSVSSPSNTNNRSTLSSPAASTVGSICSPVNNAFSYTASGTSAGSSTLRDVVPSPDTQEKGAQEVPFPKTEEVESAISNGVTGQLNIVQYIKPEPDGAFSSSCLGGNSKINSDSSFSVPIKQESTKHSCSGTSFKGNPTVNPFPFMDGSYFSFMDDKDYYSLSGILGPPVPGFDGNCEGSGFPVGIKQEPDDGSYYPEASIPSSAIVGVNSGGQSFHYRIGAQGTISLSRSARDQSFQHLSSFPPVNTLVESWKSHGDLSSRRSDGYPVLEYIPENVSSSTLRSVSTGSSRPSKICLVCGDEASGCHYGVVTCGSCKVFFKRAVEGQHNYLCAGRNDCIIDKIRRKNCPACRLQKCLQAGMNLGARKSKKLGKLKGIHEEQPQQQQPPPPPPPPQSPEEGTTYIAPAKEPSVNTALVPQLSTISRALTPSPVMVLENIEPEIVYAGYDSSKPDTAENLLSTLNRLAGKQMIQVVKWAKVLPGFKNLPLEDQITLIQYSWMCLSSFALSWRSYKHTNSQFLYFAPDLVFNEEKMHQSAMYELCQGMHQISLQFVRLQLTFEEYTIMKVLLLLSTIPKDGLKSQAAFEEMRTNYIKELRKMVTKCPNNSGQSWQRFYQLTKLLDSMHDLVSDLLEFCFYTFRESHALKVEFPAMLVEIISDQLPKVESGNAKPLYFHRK
Put plainly: MMTV luciferase reporter assay in Cos-7 cells. It counts as cell-based. As to the method:
(§1) Cos-7 cells were maintained in DMEM containing 10% fetal bovine serum (FBS) and were transiently transfected using Lipofectamine 2000 (Invitrogen). […] Cells were transfected in Opti-MEM with 400 ng of MMTV-Luc reporter plasmid and 400 ng of receptor expression vector (pRS vector) encoding full-length GR and MR respectively (ATCC). […] Luciferase data were normalized to Renilla activity as an internal control.
(§2) To validate the role of the key MR pocket residues in hormone recognition, the inventors mutated S843 and L848 to the corresponding GR residues (S843P and L848Q) within the context of the full length wild type receptor. […] We also performed reverse mutations in the full length GR receptor (P637S and Q642L) and tested them in the same MMTV reporter.

The target of another assay is T2, GR Q642L/P637S (Homo sapiens, UniProt P04150, P637S/Q642L).
T2 construct: reverse mutations in the full length GR receptor (P637S and Q642L); expressed in transfected cells; host or cells: Cos-7
T2 sequence (P04150 1-777 P637S/Q642L): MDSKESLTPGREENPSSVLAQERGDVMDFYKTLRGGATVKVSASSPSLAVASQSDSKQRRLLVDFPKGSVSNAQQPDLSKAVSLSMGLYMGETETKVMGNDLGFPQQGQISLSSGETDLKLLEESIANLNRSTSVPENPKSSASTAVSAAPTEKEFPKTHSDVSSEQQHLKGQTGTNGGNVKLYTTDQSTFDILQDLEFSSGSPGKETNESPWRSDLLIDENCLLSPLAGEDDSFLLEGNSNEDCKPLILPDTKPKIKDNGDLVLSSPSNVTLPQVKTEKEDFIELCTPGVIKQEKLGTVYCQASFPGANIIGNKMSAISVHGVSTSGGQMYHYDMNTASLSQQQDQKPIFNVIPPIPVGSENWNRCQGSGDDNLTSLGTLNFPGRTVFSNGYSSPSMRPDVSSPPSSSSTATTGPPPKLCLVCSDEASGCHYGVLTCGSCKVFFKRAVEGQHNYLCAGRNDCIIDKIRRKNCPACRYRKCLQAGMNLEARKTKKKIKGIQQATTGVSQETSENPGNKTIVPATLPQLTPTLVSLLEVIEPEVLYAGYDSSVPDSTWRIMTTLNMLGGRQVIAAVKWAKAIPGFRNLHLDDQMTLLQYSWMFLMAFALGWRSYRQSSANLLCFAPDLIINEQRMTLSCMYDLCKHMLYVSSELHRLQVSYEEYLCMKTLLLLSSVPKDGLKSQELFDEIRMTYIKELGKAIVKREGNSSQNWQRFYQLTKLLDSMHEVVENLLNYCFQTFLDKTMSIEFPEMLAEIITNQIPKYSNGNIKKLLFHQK
Put plainly: MMTV luciferase reporter assay in Cos-7 cells. The class given is cell-based. The following applies: additional mutation of P637S. As to the method:
as §1, §2

The mark [2] stands for this setting: Cos-7, MMTV-Luc, read-out: EC50, activation of wild type MR.
[3] abbreviates: summary of FIG. 5 dose-response, read-out: affinity to MR (shown in FIG. 5).

Turning to `C[C@]12C[C@H](O)[C@H]3[C@@H](CCC4=CC(=O)CC[C@@]43C)[C@@H]1CC[C@@H]2C(=O)CO` [corticosterone], the EC50 in assay [1] (setting [2]) was 0.08 nM and < 0.1 nM; in assay [1] (setting [3]), 0.1 to 1 nM. Also, in assay [1] (wild type MR), the “potency of corticosterone relative to cortisol” value is given as “roughly 10 fold”. Besides, the “activation of GR Q642L/P637S” value on GR Q642L/P637S was “severely affects activation”.

`C[C@]12CCC(=O)C=C1CC[C@@H]1[C@@H]2[C@@H](O)C[C@@]2(C)[C@H]1CC[C@]2(O)C(=O)CO` [cortisol]: the EC50 in assay [1] (setting [2]) is 0.6 nM; in assay [1] (setting [3]) it was 0.1 to 1 nM. The “activation of GR Q642L/P637S” value on GR Q642L/P637S is “severely affects activation”.
